Laboratory results: patent US20250074920A1, “MACROCYCLIC COMPOUNDS AND USE AS KINASE INHIBITORS” (BLOSSOMHILL THERAPEUTICS, INC., priority 2022, published 2025)

Assays:
Test in all cases: KINOMEscan kinase binding assay
[1] = system: MUSK; details: at 1 μM
In short: (§1)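 We measured how much kinase stayed bound to an immobilized small-molecule ligand when test compound was present. Binding ran at room temperature for 1 h, and the kinase eluted from the beads was counted by qPCR. Lower % Ctrl indicated tighter compound binding.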

[2] = system: EGFR(G719S); details: at 1 μM
In short: as §1

[3] = system: ABL1(Q252H)-nonphosphorylated; details: at 1 μM
In short: as §1

[4] = system: EPHA4; details: at 1 μM
In short: as §1

[5] = system: RET; details: at 1 μM
In short: as §1

[6] = system: TEC; details: at 1 μM
In short: as §1

[7] = system: ZAP70; details: at 1 μM
In short: as §1

[8] = system: TXK; details: at 1 μM
In short: as §1

[9] = system: SYK; details: at 1 μM
In short: as §1

[10] = system: FLT3(R834Q); details: at 1 μM
In short: as §1

[11] = system: SRMS; details: at 1 μM
In short: as §1

[12] = system: TRKC; details: at 1 μM
In short: as §1

[13] = system: JAK1(JH1domain-catalytic); details: for % Ctrl: JAK1(JH1domain-catalytic), at 1 μM; for Kd: read-out: JAK1(JH1 domain-catalytic) Kd
In short: as §1

[14] = system: ABL1(F3171)-phosphorylated; details: at 1 μM
In short: as §1

[15] = system: PDGFRB; details: at 1 μM
In short: as §1

[16] = system: EPHA7; details: at 1 μM
In short: as §1

[17] = system: FYN; details: at 1 μM
In short: as §1

[18] = system: CTK; details: at 1 μM
In short: as §1

[19] = system: LTK; details: at 1 μM
In short: as §1

[20] = system: FGFR4; details: at 1 μM
In short: as §1

[21] = system: LYN; details: at 1 μM
In short: as §1

[22] = system: EPHB2; details: at 1 μM
In short: as §1

[23] = system: ERBB3; details: at 1 μM
In short: as §1

[24] = system: FGFR2; details: at 1 μM
In short: as §1

[25] = system: CSF1R-autoinhibited; details: at 1 μM
In short: as §1

[26] = system: FLT3(N841I); details: at 1 μM
In short: as §1

[27] = system: SRC; details: at 1 μM
In short: as §1

[28] = system: EPHB3; details: at 1 μM
In short: as §1

[29] = system: FLT3(D835H); details: at 1 μM
In short: as §1

[30] = system: YES; details: at 1 μM
In short: as §1

[31] = system: EGFR(L858R, T790M); details: at 1 μM
In short: as §1

[32] = system: MET(Y1235D); details: at 1 μM
In short: as §1

[33] = system: FGFR1; details: at 1 μM
In short: as §1

[34] = system: FGR; details: at 1 μM
In short: as §1

[35] = system: ABL1(H396P)-phosphorylated; details: at 1 μM
In short: as §1

[36] = system: ABL1(H396P)-nonphosphorylated; details: at 1 μM
In short: as §1

[37] = system: KIT(V559D, T670I); details: at 1 μM
In short: as §1

[38] = system: KIT(V559D); details: at 1 μM
In short: as §1

[39] = system: BTK; details: at 1 μM
In short: as §1

[40] = system: FLT4; details: at 1 μM
In short: as §1

[41] = system: ALK; details: at 1 μM
In short: as §1

Cc1cc2c([nH]1)/C=C1\C(=O)Nc3c(Cl)cc(cc31)-c1cn(C)nc1COC[C@@H](C)NC2=O [Cpd. 3, [3a(4)Z,10R]-20-chloro-6,10,15-trimethyl-10,11,13,15-tetrahydro-2H-1,17-(ethanediylidene)pyrazolo[4,3-m]dipyrrolo[3,2-f:3′,4′-i][1,4]oxazacyclopentadecine-3,8(5H,9H)-dione]
% Ctrl [1]: 98% | % Ctrl [2]: 100% | % Ctrl [3]: 92% | % Ctrl [4]: 92% | % Ctrl [5]: 96% | % Ctrl [6]: 96% | % Ctrl [7]: 55% | % Ctrl [8]: 91% | % Ctrl [9]: 68% | % Ctrl [10]: 100% | % Ctrl [11]: 69% | % Ctrl [12]: 100% | % Ctrl [13]: 100% | Kd [13]: > 10 µM | % Ctrl [14]: 97% | % Ctrl [15]: 100% | % Ctrl [16]: 100% | % Ctrl [17]: 100% | % Ctrl [18]: 80% | % Ctrl [19]: 100% | % Ctrl [20]: 92% | % Ctrl [21]: 90% | % Ctrl [22]: 99% | % Ctrl [23]: 74% | % Ctrl [24]: 90% | % Ctrl [25]: 71% | % Ctrl [26]: 90% | % Ctrl [27]: 100% | % Ctrl [28]: 93% | % Ctrl [29]: 100% | % Ctrl [30]: 99% | % Ctrl [31]: 72% | % Ctrl [32]: 100% | % Ctrl [33]: 80% | % Ctrl [34]: 98% | % Ctrl [35]: 100% | % Ctrl [36]: 100% | % Ctrl [37]: 100% | % Ctrl [38]: 100% | % Ctrl [39]: 86% | % Ctrl [40]: 100% | % Ctrl [41]: 100%

C[C@@H]1COCc2nn(C)cc2-c2cc(Cl)c3c(c2)/C(=C/c2[nH]ccc2C(=O)N1)C(=O)N3 [Cpd. 4, [3a(4)Z,10R]-20-chloro-10,15-dimethyl-10,11,13,15-tetrahydro-2H-1,17-(ethanediylidene)pyrazolo[4,3-m]dipyrrolo[3,2-f:3′,4′-i][1,4]oxazacyclopentadecine-3,8(5H,9H)-dione]
% Ctrl [1]: 98% | % Ctrl [2]: 96% | % Ctrl [3]: 86% | % Ctrl [4]: 92% | % Ctrl [5]: 100% | % Ctrl [6]: 99% | % Ctrl [7]: 56% | % Ctrl [8]: 78% | % Ctrl [9]: 64% | % Ctrl [10]: 100% | % Ctrl [11]: 68% | % Ctrl [12]: 100% | % Ctrl [13]: 94% | Kd [13]: > 10 µM | % Ctrl [14]: 98% | % Ctrl [15]: 100% | % Ctrl [16]: 100% | % Ctrl [17]: 93% | % Ctrl [18]: 76% | % Ctrl [19]: 100% | % Ctrl [20]: 88% | % Ctrl [21]: 87% | % Ctrl [22]: 96% | % Ctrl [23]: 76% | % Ctrl [24]: 99% | % Ctrl [25]: 75% | % Ctrl [26]: 78% | % Ctrl [27]: 100% | % Ctrl [28]: 93% | % Ctrl [29]: 65% | % Ctrl [30]: 95% | % Ctrl [31]: 77% | % Ctrl [32]: 100% | % Ctrl [33]: 75% | % Ctrl [34]: 100% | % Ctrl [35]: 96% | % Ctrl [36]: 82% | % Ctrl [37]: 94% | % Ctrl [38]: 100% | % Ctrl [39]: 78% | % Ctrl [40]: 100% | % Ctrl [41]: 100%
